In brackets after ≈: the same amount, converted by molar mass.
Legend:
[1] = system: Aspergillus niger; assay: Antimicrobial activity against Aspergillus niger after 7 days by serial dilution method; type: functional
[2] = system: Candida albicans; assay: Antimicrobial activity against Candida albicans after 48 hr by serial dilution method; type: functional
[3] = system: Escherichia coli; assay: Antimicrobial activity against Escherichia coli after 24 hr by serial dilution method; type: functional
[4] = system: Staphylococcus aureus; assay: Antimicrobial activity against Staphylococcus aureus after 24 hr by serial dilution method; type: functional
[5] = system: Bacillus subtilis; assay: Antimicrobial activity against Bacillus subtilis after 24 hr by serial dilution method; type: functional
[6] = Cytotoxicity against Chlorocebus aethiops (African green monkey) Vero cells assessed as alteration in cell morphology; type: cell-based; details: chlorocebus sabaeus
[7] = system: Punta Toro virus; assay: Antiviral activity against Punta Toro virus infected Vero cells assessed as inhibition of virus-induced cytopathicity; type: functional, organism-based
[8] = system: Coxsackievirus B4; assay: Antiviral activity against Human coxsackievirus B4 infected Vero cells assessed as inhibition of virus-induced cytopathicity; type: functional, organism-based; details: Enterovirus B
[9] = system: Sindbis virus; assay: Antiviral activity against Sindbis virus infected Vero cells assessed as inhibition of virus-induced cytopathicity; type: functional, organism-based
[10] = system: Mammalian orthoreovirus 1; assay: Antiviral activity against Mammalian orthoreovirus 1 infected Vero cells assessed as inhibition of virus-induced cytopathicity; type: functional, organism-based; details: Mammalian orthoreovirus 1, Vero
[11] = system: Human respirovirus 3; assay: Antiviral activity against Human parainfluenza virus 3 infected Vero cells assessed as inhibition of virus-induced cytopathicity; type: functional, organism-based; details: Human respirovirus 3, Vero
[12] = system: Respiratory syncytial virus; assay: Antiviral activity against Respiratory syncytial virus infected human HeLa cells assessed as inhibition of virus-induced cytopathicity; type: functional, organism-based
[13] = system: Coxsackievirus B4; assay: Antiviral activity against Human coxsackievirus B4 infected human HeLa cells assessed as inhibition of virus-induced cytopathicity; type: functional, organism-based; details: Enterovirus B
[14] = system: Vesicular stomatitis virus; assay: Antiviral activity against Vesicular stomatitis virus infected human HeLa cells assessed as inhibition of virus-induced cytopathicity; type: functional, organism-based
[15] = Cytotoxicity against Homo sapiens (human) HeLa cells; type: cell-based
[16] = Cytotoxicity against Homo sapiens (human) HEL cells; type: cell-based
[17] = system: Human alphaherpesvirus 1; assay: Antiviral activity against TK(-) aciclovir-resistant Human herpesvirus 1 strain KOS infected in human HEL cells assessed as inhibition of virus-induced cytopathicity; type: functional, organism-based; details: Human alphaherpesvirus 1, KOS
[18] = system: Vaccinia virus; assay: Antiviral activity against Vaccinia virus infected human HEL cells assessed as inhibition of virus-induced cytopathicity; type: functional, organism-based; details: Orthopoxvirus vaccinia
[19] = system: Human alphaherpesvirus 2; assay: Antiviral activity against Human herpesvirus 2 strain G infected human HEL cells assessed as inhibition of virus-induced cytopathicity; type: functional, organism-based; details: Human alphaherpesvirus 2, strain G
[20] = system: Human alphaherpesvirus 1; assay: Antiviral activity against Human herpesvirus 1 strain KOS infected in human HEL cells assessed as inhibition of virus-induced cytopathicity; type: functional, organism-based; details: Human alphaherpesvirus 1, KOS
[21] = Cytotoxicity against Homo sapiens (human) MT4 cells; type: cell-based
[22] = system: Human immunodeficiency virus 2; assay: Antiviral activity against Human immunodeficiency virus type 2 (ISOLATE ROD) infected human MT4 cells assessed as inhibition of virus-induced cytopathicity; type: functional, organism-based; details: Human immunodeficiency virus 2, ISOLATE ROD
[23] = system: Human immunodeficiency virus 1; assay: Antiviral activity against Human immunodeficiency virus 1 IIIB infected human MT4 cells assessed as inhibition of virus-induced cytopathicity; type: functional, organism-based

Row | SMILES | -logMIC [1] | -logMIC [2] | -logMIC [3] | -logMIC [4] | -logMIC [5] | MCC [6] [µg/mL] | EC50 [7] [µg/mL] | EC50 [8] [µg/mL] | EC50 [9] [µg/mL] | EC50 [10] [µg/mL] | EC50 [11] [µg/mL] | EC50 [12] [µg/mL] | EC50 [13] [µg/mL] | EC50 [14] [µg/mL] | MCC [15] [µg/mL] | MCC [16] [µg/mL] | EC50 [17] [µg/mL] | EC50 [18] [µg/mL] | EC50 [19] [µg/mL] | EC50 [20] [µg/mL] | further results
1 | COc1cc(/C=N/NC(=O)c2ccncc2)cc(OC)c1OC | 2.4 | 2.4 | 2.1 | 2.1 | 2.4 | > 100 | > 100 | > 100 | > 100 | > 100 | > 100 | > 100 | > 100 | > 100 | ≥ 100 | > 100 | > 100 | > 100 | > 100 | > 100 | CC50 [21]: 110 µg/mL (≈ 349 µM); EC50 [22]: > 110 µg/mL; EC50 [23]: > 110 µg/mL
2 | Cc1ccc(/C=N/N(C(=O)c2ccccc2)C(=O)c2ccncc2)cc1 | 2.44 | 2.74 | 2.44 | 2.44 | 2.14 | ≥ 20 | > 20 | > 20 | > 20 | > 20 | > 20 | > 20 | > 20 | > 20 | 100 | > 100 | > 100 | > 100 | > 100 | > 100 | CC50 [21]: 42 µg/mL (≈ 122 µM); EC50 [22]: > 42 µg/mL; EC50 [23]: > 42 µg/mL
3 | CCOc1cc(/C=N/N(C(=O)c2ccccc2)C(=O)c2ccncc2)ccc1O | 2.19 | 2.79 | 2.49 | 2.19 | 2.19 | > 100 | > 100 | > 100 | > 100 | > 100 | > 100 | > 100 | > 100 | > 100 | > 100 | > 100 | > 100 | > 100 | > 100 | > 100 | CC50 [21]: ≥ 92 µg/mL; EC50 [22]: > 92 µg/mL; EC50 [23]: > 92 µg/mL
4 | C/C=C/C=N/NC(=O)c1ccncc1 | 2.18 | 2.48 | 1.88 | 1.88 | 1.88 | 100 | > 20 | > 20 | > 20 | > 20 | > 20 | > 20 | > 20 | > 20 | 100 | 100 | > 20 | > 20 | > 20 | > 20 | CC50 [21]: 11 µg/mL (≈ 58.1 µM); EC50 [22]: > 11 µg/mL; EC50 [23]: > 11 µg/mL
5 | COc1cc(/C=N/NC(=O)c2ccncc2)ccc1O [FTIVAZIDE] | 2.34 | 2.34 | 2.34 | 2.04 | 2.04 | > 100 | > 100 | > 100 | > 100 | > 100 | > 100 | > 20 | > 20 | > 20 | 100 | > 100 | > 100 | > 100 | > 100 | > 100 | CC50 [21]: ≥ 89 µg/mL; EC50 [22]: > 89 µg/mL; EC50 [23]: > 89 µg/mL
6 | CCOc1cc(/C=N/NC(=O)c2ccncc2)ccc1O | 2.36 | 2.36 | 2.36 | 2.06 | 2.06 | > 100 | > 100 | > 100 | > 100 | > 100 | > 100 | > 100 | > 100 | > 100 | > 100 | > 100 | > 100 | > 100 | > 100 | > 100 | CC50 [21]: 102 µg/mL (≈ 358 µM); EC50 [22]: > 102 µg/mL; EC50 [23]: > 102 µg/mL
7 | O=C(N/N=C/c1c[nH]c2ccccc12)c1ccncc1 | 2.32 | 2.63 | 2.02 | 2.02 | 2.02 | > 100 | > 100 | 45 (≈ 170 µM) | > 100 | 2.4 (≈ 9.08 µM) | > 100 | > 100 | > 100 | > 100 | ≥ 100 | > 100 | > 100 | > 100 | > 100 | > 100 | CC50 [21]: 95 µg/mL (≈ 359 µM); EC50 [22]: > 95 µg/mL; EC50 [23]: > 95 µg/mL
8 | COc1cccc(OC)c1/C=N/N(C(=O)c1ccccc1)C(=O)c1ccncc1 | 2.49 | 3.1 | 2.49 | 2.49 | 2.49 | 100 | > 20 | > 20 | > 20 | > 20 | > 20 | > 4 | > 4 | > 4 | 20 | > 100 | > 100 | > 100 | > 100 | > 100 | CC50 [21]: 12 µg/mL (≈ 30.8 µM); EC50 [22]: > 12 µg/mL; EC50 [23]: > 12 µg/mL

From ChEMBL document CHEMBL3046007, “Isonicotinic acid hydrazide derivatives: synthesis, antimicrobial activity, and QSAR studies” (Med Chem Res, 2012)
